Assay results as given in patent US8691851B2, “Lanthanide metal complexes useful in treating cancer” (National University of Singapore, priority 2009, dated 2014).

Legend:
PTEN, RhoB, MnSOD = conditions: SHEP-1 and MDA-MB-231 cells, 5 μM and 10 μM, dose-dependent
Protocol: Whole cell lysates were prepared with RIPA lysis buffer containing 10 mM Tris-HCL pH7.4, 30 mM NaCl, 1 mM EDTA, 1% Nonidet P-40, supplemented with 1 mM Na3VO4, 1 μg/ml leupeptin, 1 μg/ml pepstatin A, 1 μg/ml aprotinin and 1 mM PMSF before use. Protein concentration was determined for each sample and equal amounts of protein were boiled for 5 min for other proteins, with 1×SDS sample buffer and resolved by 8% SDS-PAGE. Thereafter, proteins were transferred onto nitrocellulose membrane, blocked for 1 h at room temperature with 5% non-fat milk, and incubated overnight at 4° C. with the primary antibody. After probing with secondary antibody for 1 hr at 25° C., protein bands were detected by using the Supersignal West Pico Chemiluminescence (Pierce). β-actin antibody was used as a loading control.
Referring to FIGS. 14 and 15, SHEP-1 neuroblastoma cells and MDA-MB-231 breast cancer cells were treated with different concentrations of C19H24N3O5S5Pr at 5 μM and 10 μM for 4 hr, 8 hr, 18 hr, 241r, 48 hr and 72 hr. Whole cell extracts were prepared and protein expression was examined by Western Blot analysis. 70 μg of total protein was loaded per lane for each experiment. The levels of protein were determined by using specific primary antibody followed by peroxidise-conjugated secondary antibody and visualization by enhanced chemiluminescence.

LC3 II = LC3 II formation by Western blot; assay type: cell-based; conditions: SHEP-1 and SHSY5Y cells, 5 μM and 10 μM, 4 hr, 8 hr and 18 hr
PARP = conditions: SHEP-1 cells, 5 μM and 10 μM, 24 hrs
PPARγ [1] = target: T1, PPARγ (Homo sapiens, UniProt P37231); assay: 3×PPRE luciferase reporter, PPARγ activation in breast cancer cells; assay type: cell-based; design: endogenous in cells; host or cells: MDA-MB-231, T47D (breast cancer); conditions: 0 to 20 μM, 18 hours
T1 sequence (P37231 1-505): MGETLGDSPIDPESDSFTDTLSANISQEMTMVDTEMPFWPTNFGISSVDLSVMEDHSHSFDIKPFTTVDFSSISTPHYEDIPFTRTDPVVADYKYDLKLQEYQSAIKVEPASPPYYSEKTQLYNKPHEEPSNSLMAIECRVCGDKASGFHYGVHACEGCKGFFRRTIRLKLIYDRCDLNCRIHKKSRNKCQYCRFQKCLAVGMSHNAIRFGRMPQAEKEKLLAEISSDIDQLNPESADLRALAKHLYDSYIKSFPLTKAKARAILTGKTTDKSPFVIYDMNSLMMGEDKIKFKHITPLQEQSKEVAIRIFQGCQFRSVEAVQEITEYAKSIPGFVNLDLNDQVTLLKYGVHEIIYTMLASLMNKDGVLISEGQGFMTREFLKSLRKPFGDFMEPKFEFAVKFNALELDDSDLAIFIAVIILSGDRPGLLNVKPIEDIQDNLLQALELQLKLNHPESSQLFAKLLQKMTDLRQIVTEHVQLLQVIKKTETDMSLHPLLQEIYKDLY
Text: To determine if C19H24N3O5S5Pr activation of PPARγ is dependent on expression of PPARγ in breast cancer cells, breast cancer cells MDA-MB-231 and T47D were transiently co-transfected with a 3×PPRE luciferase plasmid and renilla plasmid for transfection efficiency.

PPARγ [2] = target: T1, PPARγ; assay type: cell-based; design: endogenous in cells; host or cells: SHSY5Y, SHEP1 / SHEP-1 (neuroblastoma); conditions: 18 hours
Protocol: To determine if C19H24N3O5S5Pr activates PPARγ, SHSY5Y and SHEP1 neuroblastoma cells were transiently co-transfected with a 3×PPRE luciferase plasmid and renilla plasmid for transfection efficiency. Forty eight hours following transfection, the cells were exposed to increased concentrations (0 to 10 μM) of 15d-PGJ2 and C19H24N3O5S5Pr for 18 hours. The fold increase in luciferase activity correlates with the PPARγ activity of the cell. PPARγ activity is determined by calculating the RLU/renilla/μg total protein.
To assess if C19H24N3O5S5Pr activation of PPARγ is dependent on expression of PPARγ neuroblastoma cells, neuroblastoma cells SHEP1 and SHSY5Y were transiently co-transfected with a 3×PPRE luciferase plasmid and renilla plasmid for transfection efficiency. Forty eight hours following transfection, cells were exposed to increased concentrations (0 to 20 μM) of C19H24N3O5S5Pr for 18 hours. PPARγ activity was calculated as luciferase RLU/renilla/μg total protein.

PPARγ [3] = target: T1, PPARγ; assay: pPPREx3-TKLuc reporter with PPAR-γ short-hairpin RNA silencing (Method 1); assay type: cell-based; design: endogenous in cells; host or cells: SHSY5Y, SHEP1 / SHEP-1 (neuroblastoma); MDA-MB-231, T47D (breast cancer); conditions: SHEP-1 cells, 5 uM and 10 uM, 18 hr
Text: In Method 1, a reporter plasmid containing three copies of the PPAR response element (pPPREx3-TKLuc) as illustrated in FIG. 19A and as previously described in Kim et al, Toxicological Sciences, 85, (2005), pp. 585-593, was transfected into SHEP-1 cancer cells. This system directly measures activation of endogenous PPAR via transcriptional activation of the luciferase reporter gene as a result of PPARγ binding to the PPAR response element (PPRE). To determine whether PPARγ receptor is activated by C19H24N3O5S5Pr, the SHEP-1 cancer cells was transiently transfected with either short-hairpin RNA plasmid targeting PPAR-γ protein or short hairpin RNA negative control. The cells were exposed to varying doses (5 uM, 10 uM) of C19H24N3O5S5Pr for 18 hr.

CS(C)=O.CS(C)=O.[O-][n+]1ccccc1[S-].[O-][n+]1ccccc1[S-].[O-][n+]1ccccc1[S-].[Pr+3] [C19H24N3O5S5Pr, praseodymium (2-mercaptopyridine N-oxide)(dimethylsulfoxide)]
MnSOD protein expression (PTEN, RhoB, MnSOD): downregulated
PTEN protein expression (PTEN, RhoB, MnSOD): upregulated
RhoB protein expression (PTEN, RhoB, MnSOD): upregulated
LC3 II induction (LC3 II): induction of phosphtidylethaonolamine (PE)-conjugated form of microtubule-associated protein 1 light chain 3 (LC3 II)
PARP cleavage (80 kDa fragment) (PARP): PARP cleavage
PPARγ activation, MDA-MB-231 versus T47D cells (PPARγ [1]): activates PPARγ better in MDA-MB-231 cells, than in T47D cells
PPARγ activation, SHEP1 versus SHSY5Y cells (PPARγ [2]; 0 to 20 μM): activates PPARγ better in SHEP1 cells, than in SHSY5Y cells
PPARγ activation (luciferase RLU/renilla/μg total protein) (PPARγ [2]; SHSY5Y and SHEP1 cells in 10% serum, 0 to 10 μM): significant activation of PPARγ
luciferase activity upon silencing of PPARγ protein (PPARγ [3]): luciferase activity was abrogated
